The Kd is the concentration at which binding is half-saturated.

Data set [1] concerns ASGPR-1. The settings on record: ref [39]; cited from earlier work. Here is the method: The type II C-type lectin asialoglycoprotein receptor-1 (ASGPR-1, Ashwell-Morell receptor, CLEC4H1) on hepatic cells also binds GalNAc-containing structures. ASGPR-1 has a 60-fold greater preference for GalNAc over Gal. Each healthy rat hepatocyte expresses 4 to 5 × 10^5 molecules of ASGPR-1 as binding sites for asialo-orosomucoid or 1.8 × 10^6 molecules as determined by an ASGPR-1-targeted antibody, which provides a surface concentration for the receptor of 0.8 to 1 μM. […] Corresponding values for binding of svL4 to CLEC10A and ASGPR-1 of 0.24 ± 0.04 μM and 0.21 ± 0.03 μM, respectively, were obtained. […] Asialofetuin, a multi-glycosylated pro ...

In data set [2] the test system is ID8 ovarian cancer in C57BL/6 mice. As to the kind of experiment: Murine ovarian cancer model (ID8), sv6D and paclitaxel study. The class given is in vivo, mouse (C57BL/6). From the text: Mantel-Cox log-rank test, p (sv6D vs. PBS) = < 0.0001. Paclitaxel, brown; sv6D from day 45, blue; paclitaxel plus sv6D from day 100, purple; cremophor, yellow; PBS, black
In data set [3] the target is T1, human CLEC10A (Homo sapiens, UniProt Q8IUN9).
T1 construct: purchased R&D Systems
T1 sequence (Q8IUN9 61-316 limits assumed): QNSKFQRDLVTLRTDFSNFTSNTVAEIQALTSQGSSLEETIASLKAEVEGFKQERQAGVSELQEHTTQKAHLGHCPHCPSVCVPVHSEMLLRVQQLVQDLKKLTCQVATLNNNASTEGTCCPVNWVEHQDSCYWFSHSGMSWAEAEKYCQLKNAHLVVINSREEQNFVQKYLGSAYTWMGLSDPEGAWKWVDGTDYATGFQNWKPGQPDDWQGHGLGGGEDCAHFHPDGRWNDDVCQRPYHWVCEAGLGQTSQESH
Nature of the data set: Solid-phase binding to recombinant human CLEC10A. The conditions noted are these: for binding to CLEC10A: Fig. 2a, representative of 3 independent experiments. On the procedure: (§1) Solid-phase binding assays were performed with streptavidin-, protein A/G-, or Nickel-coated microtiter plates (Pierce). His-tagged or Fc-fusion recombinant receptors (R&D Systems, Minneapolis, MN) were reconstituted in PBS. Sufficient receptors were added to wells to saturate the coating. His-tagged receptors were added to each well at a 5-fold excess over the stated capacity of the Ni coating to minimize non-specific binding of the peptide. Wells were washed three times with binding buffer (25 mM Tris HCl, pH 7.4, 150 mM NaCl, 0.05% Tween-20) to remove unbound receptor and 50 μL of 2 μM biotinylated peptide in binding buffer were added and allowed to incubate for 1 h. The wells were washed four times with binding buffer and then incubated with 50 μL of 1 μg/mL streptavidin conjugated with peroxidase (Sigma-Aldrich) for 1 h. The wells were washed five times with binding buffer and 50 μL of peroxidase substrate (1-Step™ Ultra TMB, Pierce) were added. After several minutes to allow color development, the reaction was stopped with 50 μL 1 M H3PO4 and absorbance was measured at 450 nm. Bound streptavidin was quantitated by the specific activity of peroxidase (absorbance/ng protein conjugate/min) under the conditions of the assay.
(§2) Solid-phase binding assays were performed with recombinant human receptors. Three variations of the binding assay were used in this study, all of which allowed the arms of the tetravalent peptide to have full flexibility. (i) Biotinylated peptide was bound in microtiter wells coated with streptavidin and incubated with recombinant human receptors. After extensive washing, the bound receptor was measured by peroxidase conjugated to a receptor-specific antibody. (ii) The extracellular domains of receptors, which were fused with the Fc domain of immunoglobulin IgG, were bound in wells coated with protein A/G. Biotinylated peptide was incubated with the receptors and, after extensive washing, bound peptide was measured with streptavidin conjugated with peroxidase. Or (iii), recombinant receptors with a poly-His tag were bound to Nickel-coated wells and incubated with biotinylated peptide. svL4 and sv6D contain His residues (see Table 1) and can bind to the Ni coating, which was minimized by adding sufficient poly-His-tagged receptor to saturate the Ni coating.

The target in data set [4] is T2, human ASGPR-1 (Homo sapiens, UniProt P07306).
T2 construct: purchased R&D Systems
T2 sequence (P07306 62-291 limits assumed): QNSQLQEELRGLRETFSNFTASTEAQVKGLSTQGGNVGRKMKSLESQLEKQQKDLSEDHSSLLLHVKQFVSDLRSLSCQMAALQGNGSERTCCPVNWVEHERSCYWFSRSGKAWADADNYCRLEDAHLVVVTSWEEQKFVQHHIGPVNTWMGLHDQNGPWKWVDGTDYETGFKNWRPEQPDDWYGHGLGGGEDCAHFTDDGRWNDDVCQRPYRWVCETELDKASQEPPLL
Nature of the data set: Solid-phase binding to recombinant human ASGPR-1. The conditions noted are these: for binding to ASGPR-1: Fig. 2a, representative of 3 independent experiments. On the procedure: as §1, §2

Data set [5] can be described thus: Antigenicity assay in mouse sera. The conditions noted are these: 1 nmole/g s.c., alternate days for 3 months; sera of 8 treated mice, Fig. 8. Type of data set: in vivo. On the procedure: The sequence of one arm of svL4 or sv6D was conjugated to keyhole limpet hemocyanin (KLH) and injected into rabbits at two week intervals (total of 3 injections) (New England Peptide, Inc., Gardner, MA). Two weeks after the final injection, sera were prepared. Mice were injected with a peptide every other day over a period of 3 months (total ~ 45 injections), blood was then collected by cardiac puncture and sera were prepared. Rabbit serum was diluted 1:10, whereas mouse serum was diluted 1:1 or 1:5 with PBS containing 0.05% Tween-20 (PBST). Sera were incubated in microtiter wells coated with protein A/G (Pierce) for 90 min. The wells were washed three times with PBST, and then incubated with 50 μL of 1 μM biotinylated svL4 or sv6D for 1 h. The wells were washed four times with PBST, incubated 1 h with 1 μg/mL streptavidin-peroxidase conjugate, and washed four times with PBST. Peroxidase activity was assayed as above under Binding Assays.
Fig. 8 Test for antigenicity of svL4 and sv6D. Anti-sera were generated in rabbits against KLH-conjugates of the sequences of svL4 or sv6D and diluted 1:10. Mouse sera were collected after alternate-day injections of svL4 over 3 months, diluted 1:1 with PBS and added to protein-A/G-coated wells. Biotinylated svL4 or sv6D was added to wells and bound peptide was detected with a streptavidin-peroxidase conjugate. […]

Data set [6] concerns peritoneal cells of C57BL/6 mice. Nature of the data set: Peritoneal immune cell populations by flow cytometry, C57BL/6 mice. The class given is in vivo, mouse (C57BL/6). The settings on record: 1 nmole/g s.c., 5-day period, Fig. 5 (non-binding control). On the procedure:
Healthy C57BL/6 male mice, 10 weeks old, were injected subcutaneously with peptides on alternate days. Peritoneal cells were isolated from mice 24 h after dosing by injecting ice cold PBS (containing 3% FBS) into the peritoneal cavity, gently massaging the abdomen, and then collecting the fluid, which was transferred into K2EDTA-treated tubes for evaluation of specific biomarkers. Cells from three mice in each group were pooled, counted and divided among FACS tubes (1 × 10^6 cells per tube). Cells were washed once in PBS containing 3% FBS, then stained with 0.25 to 1 μg of fluorescently conjugated antibody per 10^6 cells in 100 μL of buffer as recommended by the manufacturer (Table 2).
Cells were incubated with the antibodies for 30 min at 4 °C in the dark. Following staining, the cells were washed two times with PBS/3% FBS and immediately analyzed with a MACSQuant flow cytometer (Miltenyi Biotech, Inc., San Diego, CA). Compensation was performed using single stain tubes for each color present in the analysis as well as an unstained control sample. Collection of flow cytometric data and analysis with FlowJo software, version 10.0.6 (FlowJo, LLC, Ashland, OR) were performed by Biomodels LLC (Watertown, MA).
To examine whether increases occurred in mature immune cells, peritoneal cells from Balb/c and C57BL/6 mice were analyzed by flow cytometry after cells were stained with the markers listed in Table 2. […] To explore this observation more extensively, svL4 or sv6D was injected into C57BL/6 mice on day 0, 2 or 4. Peritoneal cells were examined by flow cytometry 24 h after each injection. Shown in Fig. 5 are results expressed as cell counts for F4/80 CD11b CD86 (mature, active macrophages); CD11c (DCs); CD11c CD 86 (activated DCs); CD4 CD69 (activated T cells); CD8 CD69 (activated cytotoxic T cells); NK1.1 CD3^+ CD69 (activated NKT cells); NK1.1 CD3^− CD69 (activated NK cells); CD19 (B cells); and CD19 CD73 CD80 CD273 (memory B cells). The numbers of these mature, activated cells continued to increase with each injection.
Fig. 5 Expansion of peritoneal cells in C57BL/6 mice. Mice were injected subcutaneously at a dose of 1 nmole/g body weight of svL4, sv6D or svC1. Cells in each population recovered in a peritoneal lavage are expressed as cell counts (in thousands). Cells from three mice in each treatment group were pooled for analysis. The number of cells in each population was normalized to the average recovery of total cells from all groups. For each cell type, the left-hand, middle and right-hand set of bars represent samples from mice treated with svL4, sv6D or svC1, respectively. Mice were injected on days 0, 2 and 4, and cells were collected 24 h after each injection. Day 1, open bar; day 3, grey bar; day 5, black bar. Populations that express activation markers are indicated by an asterisk
In general terms: In flow cytometry, cells or beads pass a laser one at a time.

Data set [7] has as its system PD-1. The settings on record: patients with ovarian cancer; ref [106], [107]; cited from earlier work. From the text: Paclitaxel is currently used as a chemotherapeutic drug that acts by stabilizing microtubules and arresting cells in the cell cycle at the G2/M boundary. Paclitaxel is often combined with a platinum-based drug. Patients treated with these drugs experience a significant level of toxicity. […] However, because sv6D induces proliferation of immune cells, initiation of treatment should perhaps occur after the cell cycle inhibitory action of paclitaxel has dissipated. Pat ...

Data set [8] addresses recombinant human CLEC10A (C-type lectin receptor family member 10A) (human) (UniProt Q8IUN9). Nature of the data set: ELISA; solid-phase binding assay as a function of the concentration of peptide; KD from double-reciprocal plots of the binding curves; extensive wash steps. For orientation: ELISA stands for enzyme-linked immunosorbent assay.
Data set [9] addresses recombinant human asialoglycoprotein receptor-1 (ASGPR-1) (human) (UniProt P07306). The data set is described as above.
Setting [10] is: double-reciprocal plot of binding vs. peptide concentration, biotinylated peptide, binding buffer 25 mM Tris HCl pH 7.4, 150 mM NaCl, 0.05% Tween-20, 1 h, streptavidin-peroxidase 450 nm, ± S.D., 4 separate assays.

Entries after “also recorded” stand apart in the source; their conditions may differ. Bridges are numbered along the chain shown (N, C = ends). Roman numbers before positions name the chains, in order. Where no end group is shown, it is not given here.

On to `CC(=O)N[C@H]1C(O)O[C@H](CO)[C@H](O)[C@@H]1O` (mixture of isomers) [GalNAc, N-acetylgalactosamine], for which the “preference of ASGPR-1 for GalNAc over Gal” value in data set [1] is on record as 60 fold.
On to `CC(=O)O[C@H]1C(=O)[C@@]2(C)[C@H]([C@H](OC(=O)c3ccccc3)[C@]3(O)C[C@H](OC(=O)[C@H](O)[C@@H](NC(=O)c4ccccc4)c4ccccc4)C(C)=C1C3(C)C)[C@]1(OC(C)=O)CO[C@@H]1C[C@@H]2O` [paclitaxel], for which the “body weight increase (ascites)” value in data set [2] (aggressive disease, two weeks of treatment, sv6D 0.1 nmole/g s.c. alternate days, paclitaxel 18 μg/g i.p. days 45, 47, 49) is “had not significantly increased”. In addition, the “ρ of body weight on day 58 vs. PBS or no treatment” value in data set [2] (paclitaxel 18 μg/g i.p. days 45, 47, 49, t test, Fig. 6a) was less than 0.05. The median survival result in [2] (paclitaxel alone, PBS control 122 days, Fig. 6c) was “approximately 141 days”. In addition, in data set [2] (t test, Fig. 6b), the “ρ of body weight on day 121, paclitaxel vs. PBS” value is reported as less than 0.05.
Turning to “I: NQHTPRGGGSKK-NH2 / II: NQHTPRGGGSK / III: NQHTPRGGGS / IV: NQHTPRGGGS (amide I:11-IV:C, I:12-II:C, II:11-III:C) [sv6D]”, the values for the equilibrium dissociation constant (Kd) in data set [3] (setting [10]) and in [4] (setting [10]) were 150 ± 20 nM and 120 ± 10 nM, respectively. Moreover, the “antibodies that bind the peptides in mouse sera” value in data set [5] is given as “negative”.
On to [(VQATQS- GGGS)2K]2K-NH2 [svC1], for which the “binding to CLEC10A” value in data set [3] is “near the level of blank wells; also recorded: does not bind to CLEC10A”. For the same molecule, the “expansion of specific cell types” value in data set [6] is on record as “did not increase significantly”. For the same molecule, the “binding to ASGPR-1” value in data set [4] is listed as “near the level of blank wells”.
As to [(VSNQH- GGGS)2K]2K-NH2 [svD2], the “binding to CLEC10A” value in data set [3] is listed as “bound weakly”. Moreover, in data set [4], the “binding to ASGPR-1” value was “bound weakly”.
Turning to “nivolumab: antibody against the inhibitory receptor PD-1”, the overall response rate in [7] was 15%.
Consider “pembroliumab: antibody against the inhibitory receptor PD-1”, for which the overall response rate in data set [7] is listed as 15%.

B1: svL4, tetravalent peptide [(…-GGGS)2K]2K-NH2 (designed binder)
chain 1: VQATQSNQHTPRGGGS
chain 2: Lys-Lys-Lys-NH2
modifications: not fully specified; printed as [(VQATQSNQHTPR-GGGS)_2_K]_2_K-NH_2_; also: tetravalent: four arms joined by C-termini to branched tri-lysine core
B1: the values for the Kd in data set [8] and in data set [9] were 240 nM and 210 nM, respectively.

Values taken from paper PMC5905120, “An innovative immunotherapeutic strategy for ovarian cancer: CLEC10A and glycomimetic peptides” (Journal for Immunotherapy of Cancer, 2018).
